Autophagic flux and vacuole formation data for two molecules are collected here from patent publication US20230293464A1, “TREATMENT OF PANCREATIC DUCTAL ADENOCARCINOMA WITH MIRDAMETINIB” (SpringWorks Therapeutics Inc., priority 2022, published 2023).

Assay [1] concerns PDAC cell lines. Description: Autophagic flux, mCherry-EGFP-LC3B autophagy reporter (flow cytometry, confocal imaging). Conditions: panel of PDAC cell lines, 24-hours treatment. Type of assay: cell-based. Here is the method: Autophagic flux was determined using flow cytometry. […] Live cell imaging was performed using confocal microscopy. FIG. 1D indicates the threshold of fluorescent intensity was set to include puncta and exclude cytosolic green and background fluorescence. Green and red puncta were quantified from FIG. 1C and plotted.
(Flow cytometry measures light scatter and fluorescence of single cells or particles in a stream.)

Assay [2] deals with PDAC cells. Description: Vacuole formation on apilimod treatment. The note with it: FIG. 3A. Type of assay: cell-based. The text has this:
Cells were fixed and stained with EEA1 and LAMP1 antibodies and analyzed with confocal microscopy.

Take `O=C(NOC[C@H](O)CO)c1ccc(F)c(F)c1Nc1ccc(I)cc1F` (single isomer, unassigned) [mirdametinib]: the autophagic flux result in assay [1] was “substantially induced autophagic flux”.

As to `Cc1cccc(/C=N/Nc2cc(N3CCOCC3)nc(OCCc3ccccn3)n2)c1` [apilimod], the vacuole formation result in assay [2] was “dose-dependent vacuole formation”.
